Measurements reported in patent US12485102B2, “Methods and compositions for treating cancer” (The Wistar Institute of Anatomy and Biology, priority 2017, dated 2025).

Tests used:
[1] = tested on: CD8+ T cells from OT-1 mice; experiment: Phenotype, gene expression, fatty acid uptake and effector functions of drug-treated OT-1 CD8+ T cells in vitro
Description: We initially tested stimulation of OT-1 T cells by the polyclonal activators anti-CD3 and anti-CD28 or by their cognate peptide [sequence] and IL-2.

[2] = tested on: CD8+ T cells from OT-1 mice; experiment: Cell recovery and blast formation of in vitro stimulated, drug-treated OT-1 CD8+ T cells; format: cell-based
[3] = tested on: B16OVA tumor cells; experiment: Adoptive transfer of drug-pre-treated OT-1 cells into B16OVA tumor-bearing mice: tumor progression; details: cells treated with 100 μM of FFA, last 2 days; n=5/group
Experimental: The cells were then treated for 2 days with 50 μM fenofibric acid or DMSO. Cells were injected i.v. into C57B1/6 recipient mice that had been injected 5 days earlier with B16OVA tumor cells. Tumor sizes were monitored. Tumor weights were measured at necropsy.
Mice were injected with 10^5 B16.F10 melanoma cells that were transduced to express the immunodominant epitope of ovalbumin [sequence]
Tumor growth in the mouse models was monitored for up to 24 days.
To assess how metabolic reprogramming affects tumor antigen-specific CD8+ T cells within a TME, mice were challenged with B16OVA tumor cells. […] Tumor progression was monitored and once tumors became large, splenocytes and tumor-infiltrating cells were isolated and characterized.
In another experiment, we treated cells with 100 μM of FFA (or as a control DMSO) for the last 2 days of culture. […] We analyzed tumor weights and splenocytes and tumor infiltrating lymphocytes (TILs) at necropsy for recovery, phenotypes, and functions of the donor OT-1 cells.

[4] = tested on: CD8+ T cells from OT-1 mice; experiment: Seahorse oxygen consumption rates (OXPHOS) of drug-treated OT-1 CD8+ T cells; format: cell-based; details: 10 or 100 μM, last 2 days of culture; FIG. 10
Experimental: They were then analyzed for oxygen consumption rates (OCR) by Seahorse (left graph). In addition, after culture all live cells, CD8+ cells and activated CD44+CD8+ cells were counted to assess potential toxicity.
Seahorse experiments were conducted to further characterize the effects of FF on CD8+ T cell metabolism.
Cells were treated with 10 or 100 μM of FFA or FFP for the last 2 days of culture. […] See, FIG. 9. Both drugs increased OXPHOS as shown by increased oxygen consumption rates.

With CC(C)OC(=O)C(C)(C)Oc1ccc(C(=O)c2ccc(Cl)cc2)cc1 [FF, fenofibrate] the “T cell proliferation in response to IL-2” value ([1]; FF-treated cells) was “no effect”.
For CC(C)(Oc1ccc(C(=O)c2ccc(Cl)cc2)cc1)C(=O)O [FFA, fenofibric acid], the “toxicity in the in vitro or ex vivo pretreatment of the T cells” value ([2]; compared with fenofibrate, FIG. 8) was “reduced toxicity”, the “mice that developed progressing tumors” value [3] was 2 mice and the “mice with only small tumors that failed to grow” value [3] was 3 mice.
For C[C@H](NC(=O)C(C)(C)Oc1ccc(C(=O)c2ccc(Cl)cc2)cc1)C(=O)N[C@@H](CCC(=O)O)C(=O)O [FFP, (S)-2-((S)-2-(2-(4-(4-chlorobenzoyl)phenoxy)-2-methylpropanamido)propanamido)pentanedioic acid], the blast formation ([2]; 100 μM, last 2 days of culture, FIG. 9) was “reduced blast formation”, the fatty acid uptake ([1]; 10 or 100 μM, last 2 days of culture) was “more pronounced” and the “oxygen consumption rates (OXPHOS)” value [4] was “increased”.
